Measured values as given in patent US6346527B1, “Guanidine derivatives” (Fujisawa Pharmaceutical Co., Ltd., priority 1998, dated 2002).
Where a name gives a salt, the structure may show the parent alone.

Molecular target: T1, Na^+/H^+ exchange in cells (Rattus norvegicus, UniProt P26431)
T1 construct: The cells were dissociated by gentle strokes, and the resulting suspension was filtrated through six layers of surgical gauze; from tissue; host or cells: thymus cells (thymocytes) of a male SD rat
T1 sequence (P26431 whole entry): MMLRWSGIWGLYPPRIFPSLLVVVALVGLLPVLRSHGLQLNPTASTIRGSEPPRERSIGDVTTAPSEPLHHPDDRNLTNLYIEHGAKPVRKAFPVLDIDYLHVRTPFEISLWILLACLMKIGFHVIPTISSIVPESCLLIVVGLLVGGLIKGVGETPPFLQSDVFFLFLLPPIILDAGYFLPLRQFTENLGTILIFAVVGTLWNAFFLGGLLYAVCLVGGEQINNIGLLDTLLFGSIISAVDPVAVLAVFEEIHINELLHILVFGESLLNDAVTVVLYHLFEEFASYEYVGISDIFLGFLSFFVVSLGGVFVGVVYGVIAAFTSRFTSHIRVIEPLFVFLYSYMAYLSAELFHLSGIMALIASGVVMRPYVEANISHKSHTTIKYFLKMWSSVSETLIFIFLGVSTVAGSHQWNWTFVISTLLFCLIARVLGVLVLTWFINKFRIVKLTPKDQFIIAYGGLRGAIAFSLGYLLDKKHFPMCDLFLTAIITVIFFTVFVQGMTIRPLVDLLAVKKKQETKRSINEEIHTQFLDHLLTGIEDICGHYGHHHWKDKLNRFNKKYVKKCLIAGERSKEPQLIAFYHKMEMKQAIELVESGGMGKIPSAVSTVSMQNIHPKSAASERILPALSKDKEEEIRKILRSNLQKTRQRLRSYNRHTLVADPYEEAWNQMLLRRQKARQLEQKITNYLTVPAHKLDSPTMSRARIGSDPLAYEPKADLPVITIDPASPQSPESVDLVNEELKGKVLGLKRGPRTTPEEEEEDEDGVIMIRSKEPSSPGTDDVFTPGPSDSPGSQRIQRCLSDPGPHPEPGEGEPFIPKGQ
Test: Inhibitory activity on Na^+/H^+ exchange in cells
Type: cell-based
Details: rat (male SD) thymus cells; initial increase in intracellular pH (BCECF fluorescence) after adding NaCl (final 100 mM), 37° C.
Description: [2] Inhibitory activity on Na^+/H^+ exchange in cells
Procedure was carried out according to a similar manner to the method described in Enzymology 173, 777 (1989).
Cell preparation: One male SD strain rat weighing 250-300 g was sacrificed with the blow on the head. Then, the thymus was removed into ice-cold NaCl medium (140 mM sodium chloride, 1 mM potassium chloride, 1 mM calcium chloride, 1 mM magnesium chloride, 10 mM glucose and 20 mM N-2-hydroxyethylpiperazine-N′-2-ethanesulfonic acid (HEPES)—pH 7.3), cut in small fragments, and transferred to glass homogenizer. […]
Assay: The pellet was washed with Na-free buffer (140 mM Trimethyl ammonium, 4 mM KCl, 1 mM CaCl2, 1 mM MgSO4, 1 mM NaH2PO4, 18 mM glucose, 20 mM HEPES (pH 7.4)), then incubated with 16 μM of acetoxymethyl ester of 2′, 7′-bis(2-carboxyethyl)-5,6-carboxyfluorescein (BCECF-AM, Calbiochem Co.) and 20 mM NH4Cl at 37° C. for 30 minutes. […] Intracellular pH was measured at 37° C. with a spectrofluorometer (FS100, Kowa company, Japan) using the ratio of the emission (530 nm) obtained at 490 nm excitation wavelengths. […] The BCECF fluorescence signals were calibrated by titration with 1 M 2-(N-morpholino)ethanesulfonic acid (MES) after permeabilization of the cells with 0.5% Triton.

- IC50: < 100 nM
SMILES: N=C(N)NC(=O)C1=Cc2cccc(/C=C/C(=O)O)c2OCC1 [(a), [9-[(E)-(2-Carboxyvinyl)]-2,3-dihydro-1-benzoxepin-4-carbonyl]guanidine hydrochloride]
